Data taken from the supplement of paper PMC11451515.

Experiments:
Settings in all cases: 48 h
P12-Ichikawa [1] = test: AUC of viability dose-response curve (% viability x log10 dose units); higher = less sensitive
Summary of the method: (§1)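 Area under the curve was integrated by trapezoidal rule from a log-logistic fit of normalised viability, with curves exceeding full viability scaled and quality-control failures removed. The fit had four parameters over log10 doses. Viability came from CellTiter-Glo One luminescence, normalised per plate to DMSO and cell-free wells, after leukemia cells adapted to each medium (500 or 1000 cells/well, 1536-well plates) were exposed to library compounds in DMSO for 48 h at 37°C. The 11 threefold doses ran from 47 μM to 0.79 nM.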

NOMO1 [2] = test: as above
Summary of the method: as §1

SEM cells [3] = test: as above
Summary of the method: as §1

P12-Ichikawa [4] = test: cell viability relative to DMSO control; higher = less cytotoxic
Summary of the method: (§2)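 NOMO1 or SEM cells were plated at 500 cells/well and P12-Ichikawa cells at 1000 cells/well in 1536-well plates (5 μl), after each leukemia line had been adapted for at least four passages in each medium. Pin dosing delivered library compounds in DMSO at 11 threefold concentrations, 47 μM to 0.79 nM. CellTiter-Glo One luminescence was read after 48 h at 37°C. Viability is reported as a per-plate percentage of DMSO wells, with cell-free wells as background.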

NOMO1 [5] = test: as above
Summary of the method: as §2

SEM cells [6] = test: as above
Summary of the method: as §2

CC(C)(C)C(=O)OCOP(=O)(COCCn1cnc2c(N)ncnc21)OCOC(=O)C(C)(C)C
AUC of viability dose-response curve
Settings	NOMO1 [2]	P12-Ichikawa [1]	SEM cells [3]
HPLM + 10% dialyzed FBS	306	316	291
RPMI 5 mM glucose + 10% FBS	259	287	238
RPMI 5 mM glucose + 10% dialyzed FBS	278	309	235

cell viability [%]
Settings	NOMO1 [5]	P12-Ichikawa [4]	SEM cells [6]
HPLM + 10% dialyzed FBS, 0.000781 µM	86.9	97.4	84.1
HPLM + 10% dialyzed FBS, 0.00234 µM	99.5	110	112
HPLM + 10% dialyzed FBS, 0.00702 µM	93.6	103	104
HPLM + 10% dialyzed FBS, 0.0211 µM	108	103	101
HPLM + 10% dialyzed FBS, 0.0632 µM	88.3	73.1	71.9
HPLM + 10% dialyzed FBS, 0.19 µM	62.2	73.5	51
HPLM + 10% dialyzed FBS, 0.569 µM	68.2	70.2	68.1
HPLM + 10% dialyzed FBS, 1.71 µM	33.9	50.1	38.1
HPLM + 10% dialyzed FBS, 5.12 µM	32.2	27.4	25.6
HPLM + 10% dialyzed FBS, 15.4 µM	18.9	19	14.1
HPLM + 10% dialyzed FBS, 46.1 µM	2.01	29.2	7.08
RPMI 5 mM glucose + 10% FBS, 0.000781 µM	109	94.7	108
RPMI 5 mM glucose + 10% FBS, 0.00234 µM	96	104	101
RPMI 5 mM glucose + 10% FBS, 0.00702 µM	98.2	92.3	108
RPMI 5 mM glucose + 10% FBS, 0.0211 µM	98.6	94.6	88
RPMI 5 mM glucose + 10% FBS, 0.0632 µM	70.3	69.5	61.7
RPMI 5 mM glucose + 10% FBS, 0.19 µM	61.4	72.9	42.7
RPMI 5 mM glucose + 10% FBS, 0.569 µM	44.4	52.6	51.4
RPMI 5 mM glucose + 10% FBS, 1.71 µM	19.9	29.9	26.5
RPMI 5 mM glucose + 10% FBS, 5.12 µM	15.8	15	13
RPMI 5 mM glucose + 10% FBS, 15.4 µM	9.1	10.7	7.59
RPMI 5 mM glucose + 10% FBS, 46.1 µM	2.21	19.6	2.97
RPMI 5 mM glucose + 10% dialyzed FBS, 0.000781 µM	101	89.3	86.6
RPMI 5 mM glucose + 10% dialyzed FBS, 0.00234 µM	93.6	96.3	95.4
RPMI 5 mM glucose + 10% dialyzed FBS, 0.00702 µM	91.9	94.7	95.3
RPMI 5 mM glucose + 10% dialyzed FBS, 0.0211 µM	93.7	86.4	85.1
RPMI 5 mM glucose + 10% dialyzed FBS, 0.0632 µM	78.5	82.1	48.5
RPMI 5 mM glucose + 10% dialyzed FBS, 0.19 µM	66.9	65	39.8
RPMI 5 mM glucose + 10% dialyzed FBS, 0.569 µM	47.7	61.6	42.2
RPMI 5 mM glucose + 10% dialyzed FBS, 1.71 µM	28.6	46.7	23.2
RPMI 5 mM glucose + 10% dialyzed FBS, 5.12 µM	14.9	28.8	13
RPMI 5 mM glucose + 10% dialyzed FBS, 15.4 µM	14.2	28.8	10.9
RPMI 5 mM glucose + 10% dialyzed FBS, 46.1 µM	2.41	27.4	3.51

C[C@@]12O[C@@H](C[C@]1(O)CO)n1c3ccccc3c3c4c(c5c6ccccc6n2c5c31)CNC4=O
AUC of viability dose-response curve
Settings	NOMO1 [2]	P12-Ichikawa [1]	SEM cells [3]
HPLM + 10% dialyzed FBS	313	326	251
RPMI 5 mM glucose + 10% FBS	326	311	217
RPMI 5 mM glucose + 10% dialyzed FBS	324	311	228

cell viability [%]
Settings	NOMO1 [5]	P12-Ichikawa [4]	SEM cells [6]
HPLM + 10% dialyzed FBS, 0.000781 µM	–	115	117
HPLM + 10% dialyzed FBS, 0.00234 µM	–	112	125
HPLM + 10% dialyzed FBS, 0.00702 µM	–	109	127
HPLM + 10% dialyzed FBS, 0.0211 µM	–	112	109
HPLM + 10% dialyzed FBS, 0.0632 µM	–	110	89.7
HPLM + 10% dialyzed FBS, 0.19 µM	–	101	65.5
HPLM + 10% dialyzed FBS, 0.569 µM	–	81.3	27.3
HPLM + 10% dialyzed FBS, 1.71 µM	–	29.9	18.4
HPLM + 10% dialyzed FBS, 5.12 µM	–	23.2	14.8
HPLM + 10% dialyzed FBS, 15.4 µM	–	15.2	11.8
HPLM + 10% dialyzed FBS, 46.1 µM	–	12.9	7.23
RPMI 5 mM glucose + 10% FBS, 0.000781 µM	106	116	–
RPMI 5 mM glucose + 10% FBS, 0.00234 µM	128	117	–
RPMI 5 mM glucose + 10% FBS, 0.00702 µM	102	121	–
RPMI 5 mM glucose + 10% FBS, 0.0211 µM	121	110	–
RPMI 5 mM glucose + 10% FBS, 0.0632 µM	119	111	–
RPMI 5 mM glucose + 10% FBS, 0.19 µM	96.3	98.2	–
RPMI 5 mM glucose + 10% FBS, 0.569 µM	77.3	70.5	–
RPMI 5 mM glucose + 10% FBS, 1.71 µM	42.3	26.1	–
RPMI 5 mM glucose + 10% FBS, 5.12 µM	39.9	26.6	–
RPMI 5 mM glucose + 10% FBS, 15.4 µM	24.3	15.6	–
RPMI 5 mM glucose + 10% FBS, 46.1 µM	5.7	8.24	–
RPMI 5 mM glucose + 10% dialyzed FBS, 0.000781 µM	103	115	118
RPMI 5 mM glucose + 10% dialyzed FBS, 0.00234 µM	118	109	111
RPMI 5 mM glucose + 10% dialyzed FBS, 0.00702 µM	122	115	96.4
RPMI 5 mM glucose + 10% dialyzed FBS, 0.0211 µM	138	103	106
RPMI 5 mM glucose + 10% dialyzed FBS, 0.0632 µM	110	97.6	65
RPMI 5 mM glucose + 10% dialyzed FBS, 0.19 µM	99.6	104	52.1
RPMI 5 mM glucose + 10% dialyzed FBS, 0.569 µM	76.4	62.3	20.2
RPMI 5 mM glucose + 10% dialyzed FBS, 1.71 µM	50	33.8	13
RPMI 5 mM glucose + 10% dialyzed FBS, 5.12 µM	31.8	24.3	8.04
RPMI 5 mM glucose + 10% dialyzed FBS, 15.4 µM	27.4	9.03	6.86
RPMI 5 mM glucose + 10% dialyzed FBS, 46.1 µM	4.47	8.99	5.81
